# Experimental data from US4871109A (priority 1988, dated 1989).
# Assays:
# rats = conditions: rat, in vivo
# in vivo = conditions: rat
smiles,measurement,setting,value
"FC(F)(F)OC(F)(F)C(F)(F)OC(F)(F)C(F)(F)OC(F)(F)C(F)(F)OC(F)(F)C(F)(F)OC(F)(F)C(F)(F)OC(F)(F)C(F)(F)OC(F)(F)C(F)(F)OC(F)(F)F [PFHG, 1,1,1,3,3,4,4,6,6,7,7,9,9,10,10,12,12,13,13,15,15,16,16,18, 18,19,19,21,21,22,22,24,24,24-tetratriacontafluoro-2,5,8,11, 14,17,20,23-octaoxatetetracosane]",toxicity (in words),rats,essentially nontoxic
same,LD50,in vivo,> 10000 mg/kg
